Four compounds from patent US20100056524A1, “Compound” (priority 2008, published 2010) can be followed below.

Common to all, as to format: biochemical
One assay concerns the target T1, PAK6 (Homo sapiens, UniProt Q9NQU5).
T1 construct: All protein kinases were of human origin and encoded full length proteins, unless indicated otherwise; made in house
In words: PAK6 protein kinase assay. To be noted: for remaining activity at 10 µM: 10 μM compound; for residual kinase activity PAK6: 1 μm compound; for remaining activity at 1 µM: 1 μM compound. From the text: (§1) All protein kinases were of human origin and encoded full length proteins, unless indicated otherwise. They were either expressed as glutathione S-transferase (GST) fusion proteins in Escherichia Coli or as hexahistidine (His6)-tagged proteins in insect Sf21 cells. GST fusion proteins were purified by affinity chromatography on glutathione-Sepharose, and His6-tagged proteins on nickel/nitriloacetate-agarose. The procedures for expressing some of the protein kinases used herein have been detailed previously.^8,9 The following sections outline the DNA vectors synthesised and the procedures used to express and purifying protein kinases that have not been reported previously.
(§2) All assays (25.5 μl) were carried out at room temperature (21° C.) and were linear with respect to time and enzyme concentration under the conditions used. Assays were performed for 30 min using Multidrop Micro reagent dispensers (Thermo Electron Corporation, Waltham, Mass. 02454, USA) in a 96-well format. The concentration of magnesium acetate in the assays was 10 mM and the [γ-33P] ATP (800 cpm/pmol) was used at 5, 20 or 50 μM as indicated, in order to be at or below the Km for ATP for each enzyme. Protein kinases assayed at 5 μM ATP were: —ERK1, ERK8, PKBα, MARK3, Aurora C. Protein kinases assayed at 20 μM ATP were: —JNK1, PDK1, CHK1, CHK2, CDK2 and Aurora B. Protein kinases assayed at 50 μM ATP were: —MNK2, IKKepsilon and TBK1.
(§3) The assays were initiated with MgATP, stopped by addition of 5 μl of 0.5 M orthophosphoric acid and spotted on to P81 filterplates using a unifilter harvester (PerkinElmer, Boston, Mass. 02118, USA). The IC50 values of inhibitors were determined after carrying out assays at 10 different concentrations of each compound.
(§4) Unless stated otherwise, enzymes were diluted in 50 mM Tris/HCl pH 7.5, 0.1 mM EGTA, 1 mg/ml BSA, 0.1% (v/v) 2-mercaptoethanol and assayed in 50 mM Tris/HCl pH 7.5, 0.1 mM EGTA, 0.1% (v/v) 2-mercaptoethanol.

The target in a further assay is T2, EPH-B3 (Homo sapiens, UniProt P54753).
T2 construct: All protein kinases were of human origin and encoded full length proteins, unless indicated otherwise; made in house
T2 sequence (P54753 34-998): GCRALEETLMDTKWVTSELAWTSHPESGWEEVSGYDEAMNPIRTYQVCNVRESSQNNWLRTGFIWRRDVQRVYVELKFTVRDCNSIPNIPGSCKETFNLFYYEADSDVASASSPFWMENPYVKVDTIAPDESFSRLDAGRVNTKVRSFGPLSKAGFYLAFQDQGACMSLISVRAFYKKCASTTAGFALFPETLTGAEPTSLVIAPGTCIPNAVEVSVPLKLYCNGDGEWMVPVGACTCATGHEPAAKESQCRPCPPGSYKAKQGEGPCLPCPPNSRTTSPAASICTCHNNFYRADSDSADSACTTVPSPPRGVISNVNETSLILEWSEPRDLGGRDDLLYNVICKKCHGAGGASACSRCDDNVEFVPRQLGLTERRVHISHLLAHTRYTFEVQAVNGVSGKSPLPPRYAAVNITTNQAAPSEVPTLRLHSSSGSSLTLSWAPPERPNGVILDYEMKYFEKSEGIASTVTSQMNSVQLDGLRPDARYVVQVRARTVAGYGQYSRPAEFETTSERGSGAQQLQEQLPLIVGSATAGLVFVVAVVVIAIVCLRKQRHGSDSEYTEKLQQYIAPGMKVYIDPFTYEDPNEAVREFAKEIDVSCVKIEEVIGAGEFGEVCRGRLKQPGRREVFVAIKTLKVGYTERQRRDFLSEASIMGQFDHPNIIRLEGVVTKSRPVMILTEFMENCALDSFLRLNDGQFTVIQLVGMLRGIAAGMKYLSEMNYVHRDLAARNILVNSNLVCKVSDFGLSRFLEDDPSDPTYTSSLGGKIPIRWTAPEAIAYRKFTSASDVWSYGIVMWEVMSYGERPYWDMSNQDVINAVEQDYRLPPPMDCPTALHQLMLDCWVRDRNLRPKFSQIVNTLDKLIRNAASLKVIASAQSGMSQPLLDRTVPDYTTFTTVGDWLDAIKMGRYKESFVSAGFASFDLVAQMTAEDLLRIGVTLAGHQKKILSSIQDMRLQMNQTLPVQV
Nature of the assay: EPH-B3 protein kinase assay. As to conditions: for remaining activity at 10 µM: 10 μM compound; for residual kinase activity EPH-B3: 1 μm compound; for remaining activity at 1 µM: 1 μM compound.
Source text: as §1, §2, §3, §4

Another assay concerns the target T3, EF2K (Homo sapiens, UniProt O00418).
T3 construct: All protein kinases were of human origin and encoded full length proteins, unless indicated otherwise; made in house
In words: EF2K protein kinase assay. To be noted: for remaining activity at 10 µM: 10 μM compound; for residual kinase activity EF2K: 1 μm compound; for remaining activity at 1 µM: 1 μM compound.
Source text: as §1, §2, §3, §4

The next assay has as its target T4, DYRK3 (Homo sapiens, UniProt O43781).
T4 construct: All protein kinases were of human origin and encoded full length proteins, unless indicated otherwise; made in house
T4 sequence (O43781 1-588): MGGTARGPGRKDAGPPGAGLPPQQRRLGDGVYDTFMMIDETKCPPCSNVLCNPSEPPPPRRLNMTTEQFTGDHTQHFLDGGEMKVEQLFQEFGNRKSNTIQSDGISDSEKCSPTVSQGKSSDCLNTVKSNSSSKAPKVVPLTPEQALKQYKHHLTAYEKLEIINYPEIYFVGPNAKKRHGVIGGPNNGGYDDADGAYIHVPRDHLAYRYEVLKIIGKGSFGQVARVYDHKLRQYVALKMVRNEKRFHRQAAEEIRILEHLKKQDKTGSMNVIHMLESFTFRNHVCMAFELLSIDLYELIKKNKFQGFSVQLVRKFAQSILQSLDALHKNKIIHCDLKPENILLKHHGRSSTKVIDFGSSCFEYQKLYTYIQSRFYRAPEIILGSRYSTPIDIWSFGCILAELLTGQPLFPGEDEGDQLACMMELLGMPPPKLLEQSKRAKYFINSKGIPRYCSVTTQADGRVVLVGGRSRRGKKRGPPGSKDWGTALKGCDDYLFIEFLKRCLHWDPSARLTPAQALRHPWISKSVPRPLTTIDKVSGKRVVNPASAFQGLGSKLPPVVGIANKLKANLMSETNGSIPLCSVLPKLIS
In words: DYRK3 protein kinase assay. To be noted: for remaining activity at 10 µM: 10 μM compound; for residual kinase activity DYRK3: 1 μm compound; for remaining activity at 1 µM: 1 μM compound.
Source text: as §1, §2, §3, §4

Setting [1] is: read-out: residual kinase activity PAK6.
The mark [2] stands for this setting: read-out: residual kinase activity EPH-B3.
Where [3] appears, read: read-out: residual kinase activity EF2K.
Setting [4] is: read-out: residual kinase activity DYRK3.
The mark [5] stands for this setting: PAK6, read-out: residual kinase activity.
Where [6] appears, read: EPH-B3, read-out: residual kinase activity.
[7] abbreviates: EF2K, read-out: residual kinase activity.
The mark [8] stands for this setting: DYRK3, read-out: residual kinase activity.

Counter-ions that a name gives are not always drawn. Like-named read-outs stand apart in the source and are kept apart here.

T1 sequence (Q9NQU5 whole entry): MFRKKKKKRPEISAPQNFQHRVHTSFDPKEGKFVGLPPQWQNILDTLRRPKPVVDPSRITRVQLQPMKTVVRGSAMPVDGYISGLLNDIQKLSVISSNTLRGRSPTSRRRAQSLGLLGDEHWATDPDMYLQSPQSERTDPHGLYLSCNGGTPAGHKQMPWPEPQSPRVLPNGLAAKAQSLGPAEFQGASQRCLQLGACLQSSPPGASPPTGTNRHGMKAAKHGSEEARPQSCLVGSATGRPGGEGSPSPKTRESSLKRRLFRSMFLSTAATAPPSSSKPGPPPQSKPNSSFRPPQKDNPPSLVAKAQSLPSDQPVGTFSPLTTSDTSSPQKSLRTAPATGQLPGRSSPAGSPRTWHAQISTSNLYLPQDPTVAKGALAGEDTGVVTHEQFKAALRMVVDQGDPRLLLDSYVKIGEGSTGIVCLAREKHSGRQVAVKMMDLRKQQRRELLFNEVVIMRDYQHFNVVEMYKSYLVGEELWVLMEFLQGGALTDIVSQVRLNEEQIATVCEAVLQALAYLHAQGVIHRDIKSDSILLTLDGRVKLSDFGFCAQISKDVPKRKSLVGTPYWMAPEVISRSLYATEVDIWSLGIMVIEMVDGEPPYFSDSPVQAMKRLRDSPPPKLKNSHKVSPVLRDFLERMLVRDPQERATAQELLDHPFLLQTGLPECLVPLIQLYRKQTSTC

As to `O=C(NCCCNc1nc(Nc2cccc(F)c2)ncc1Br)C1CCC1` [Compound A, cyclobutanecarboxylic acid {3-[5-bromo-2-(3-fluoro-phenylamino)-pyrimidin-4-ylamino]-propyl}-amide, reference compound], the remaining activity at 10 µM on PAK6 (setting [1]) is 14%; at EPH-B3 (setting [2]) it was 69%; on EF2K (setting [3]) it was 88%; at DYRK3 (setting [4]), 7%. At PAK6, the “residual kinase activity PAK6” value was 45%. Moreover, the “residual kinase activity EPH-B3” value at EPH-B3 is 92%. Also, the “residual kinase activity EF2K” value at EF2K was 96%. Besides, the “residual kinase activity DYRK3” value at DYRK3 is given as 33%.
For `O=C(NCCCNc1nc(Nc2cccc(F)c2)ncc1C1CC1)C1CCC1` [Example 23, Cyclobutanecarboxylic acid {3-[5-cyclopropyl-2-(3-fluoro-phenylamino)-pyrimidin-4-ylamino]-propyl}-amide], the remaining activity at 10 µM came to 50% at PAK6 (setting [1]); 50% at PAK6 (setting [5]); 95% at EPH-B3 (setting [2]); 95% on EPH-B3 (setting [6]); 125% at EF2K (setting [3]); 125% at EF2K (setting [7]). Moreover, the remaining activity at 10 µM at DYRK3 (setting [4]) and on DYRK3 (setting [8]) was 36% each time. On PAK6, the “residual kinase activity PAK6” value worked out at 82%. The remaining activity at 1 µM at PAK6 (setting [5]) amounted to 82%; at EPH-B3 (setting [6]) it was 120%; at EF2K (setting [7]), 105%; on DYRK3 (setting [8]), 78%. The “residual kinase activity EPH-B3” value at EPH-B3 turned out to be 120%. Further, the “residual kinase activity EF2K” value on EF2K stood at 105%. Moreover, the “residual kinase activity DYRK3” value on DYRK3 turned out to be 78%.
As for `O=C(NCCCNc1nc(Nc2cccc(N3CCCC3=O)c2)ncc1C1CC1)c1cccs1` [Example 47, Thiophene-2-carboxylic acid (3-{5-cyclopropyl-2-[3-(2-oxo-pyrrolidin-1-yl)-phenylamino]-pyrimidin-4-ylamino}-propyl)-amide. Hydrochloride salt], the remaining activity at 1 µM on PAK6 (setting [5]) stood at 77%; on EPH-B3 (setting [6]) it was 48%; at EF2K (setting [7]) it was 105%; at DYRK3 (setting [8]), 73%. Besides, the remaining activity at 10 µM at PAK6 (setting [5]) turned out to be 85%; on EPH-B3 (setting [6]), 93%; on EF2K (setting [7]) it was 104%; at DYRK3 (setting [8]), 33%.
Consider `O=C(NCCCNc1nc(Nc2cccnc2)ncc1C1CC1)c1cccs1` [Example 50, Thiophene-2-carboxylic acid {3-[5-cyclopropyl-2-(pyridin-3-ylamino)-pyrimidin-4-ylamino]-propyl}-amide], for which the remaining activity at 1 µM was 78% at PAK6 (setting [5]), 100% at EPH-B3 (setting [6]), 108% at EF2K (setting [7]) and 59% at DYRK3 (setting [8]). Further, the remaining activity at 10 µM at PAK6 (setting [5]) was 50%; on EPH-B3 (setting [6]), 97%; at EF2K (setting [7]), 101%; at DYRK3 (setting [8]), 22%.
